Results: patent publication US12564582B2 (Prilenia Neurotherapeutics Ltd., priority 2016, dated 2026)
Like-named read-outs stand apart in the source and are kept apart here.

Assays:
[1] = tested on: patients with Huntington's disease
Protocol: The study also compared data from all patients to those obtained in HD subpopulations.
The primary efficacy variable and endpoint for this study was change from baseline in the UHDRS TMS (defined as the sum of all UHDRS motor domains ratings) at Week 26 or Week 52. The primary measure of motor impairment is the UHDRS motor assessment section, which was administered by a trained examiner. The first part of the motor assessment consisted of five TMS subscores, provided below. The sum total of all the 31 items is referred to as the Total Motor Score (TMS). The secondary efficacy variable and endpoint was change from baseline in the mPPT at Week 26 or Week 52. The TMS scale includes measurement of dystonia.
It is a research tool which has been developed to provide a uniform assessment of the clinical features and course of HD. The TMS component of UHDRS comprises 31 assessments from the 15 items of the UHDRS, with each assessment rated on a 5-point scale from 0 (normal) to 4 (maximally abnormal).
The change from baseline in UHDRS-TMS was analyzed using a Repeated Measures model (SAS® MIXED procedure with REPEATED sub-command). The model includes the following fixed effects: categorical week in study by treatment interaction, center, neuroleptic use or no use, and baseline UHDRS-TMS score. The unstructured covariance matrix for repeated observations within patients was used.

[2] = tested on: patients with Huntington's disease; conditions: for Δ to placebo, change from baseline in UHDRS TMS Gait and Balances: Week 52; for Δ to placebo, change from baseline in UHDRS TMS Gait and Balance: BL TFC≥7
Excerpt: • CIBIC-Plus global score as compared to baseline • Change from baseline in the PDS score • Change from baseline in UHDRS FA • CGIC as compared to baseline • Change from baseline in UHDRS TFC • Change from baseline in UHDRS IS Global/Functional Scales: • Change from baseline in HD QOL • Change from baseline in Walk-12 scale TMS Subscores: • Change from baseline in hand movement score (defined as the sum of UHDRS domains finger taps, pronate-supinate hands and luria [fist-hand-palm test]) • Change from baseline in Gait and balance score (defined as the sum of UHDRS domains gait, tandem walking and retropulsion pull test) • Change from baseline in UHDRS mMS (defined as the sum of UHDRS domains dysarthria, tongue protrusion, finger taps, pronate-supinate hands, luria, rigidity, bradykinesia, gait, tandem walking, retropulsion pull test) • Change from baseline in UHDRS Chorea • Change from baseline in UHDRS Dystonia • Responders, defined as patients with UHDRS TMS change from baseline≤0 Other Motor Assessments: • Change from baseline in Q Motor measurements including digitomotography (speeded index finger tapping), dysdiadochomotography (pronation/supination hand tapping), manumotography and choreomotography (grip force and chorea analysis) and pedomotography (speeded foot tapping) • Change from baseline in the TUG test Cognitive/Psychiatric Assessments: • Change from baseline in HD-CAB brief: SDMT, Emotion Recognition, Trail Making Test, HVLT-R, Paced Tapping at 3 Hz, OTS. • Change from baseline in PBA-s Safety Variables and Endpoints
The gait and balance score is defined as the sum of UHDRS domains gait, tandem walking and retropulsion pull test.

[3] = tested on: patients with Huntington's disease; conditions: Week 52
Excerpt: Motor deficits can be objectively assessed using different Q-Motor assessments. All Q-Motor assessments are based on the application of precalibrated and temperature controlled force transducers and 3-dimensional position sensors with very high sensitivity and test-retest reliability across sessions and sites in a multicenter clinical study. Q-Motor measures thus aim to reduce the limited sensitivity of categorical clinical rating scales, the intra- and inter-rater variability, and placebo effects observed in scales such as UHDRS-TMS. In addition, Q-Motor assessments allow for the objective monitoring of unintended motor side-effects in clinical studies. Thus, Q-Motor is an objective, reliable, and sensitive measure of motor function that is free of rater bias and limits placebo effect influence.
This task assessed the regularity of hand taps performed when alternating between the palm and dorsal surface of the hand performing a repetitive pronation/supination movement. The force and duration of the hand taps are recorded similarly to the speeded tapping task. A tone cues the start and end of an assessment. Five trials of 10 seconds duration are performed with each hand.

[4] = tested on: patients with Huntington's disease; conditions: 45 mg bid
[5] = tested on: human patients afflicted with dystonia; conditions: periodic (daily or twice daily) oral administration
neuroblastoma cell line = conditions: SIR-dependent manner (Geva 2016); cited from earlier work

CCCN1CCC(c2cccc(S(C)(=O)=O)c2)CC1 [pridopidine, 4-[3-(methylsulfonyl)phenyl]-1-propyl-piperidine]
UHDRS-TMS change from baseline over time ([1]; 45 mg bid, HD1 patients, after 52 weeks): improvement in TMS score
Δ to placebo, change from baseline in UHDRS TMS ([1]; 45 mg bid, Week 26, ALL): 1.42
Δ to placebo, change from baseline in UHDRS TMS ([1]; 45 mg bid, Week 26, Stage 1 BL TFC 11-13): −4.47
Δ to placebo, change from baseline in UHDRS TMS ([1]; 45 mg bid, Week 52, ALL): 0.59
Wk 52 Δ to placebo, change from baseline in UHDRS TMS ([1]; 45 mg bid, Week 52, Stage 1 BL TFC 11-13): −5.32
TMS change from baseline vs historical placebo ([1]; 45 mg bid, historical placebo in HART and MermaiHD): significant
Δ to placebo, change from baseline in UHDRS TMS ([1]; 67.5 mg bid, Week 26, ALL): 1.71
Δ to placebo, change from baseline in UHDRS TMS ([1]; 67.5 mg bid, Week 26, Stage 1 BL TFC 11-13): −3
Δ to placebo, change from baseline in UHDRS TMS ([1]; 67.5 mg bid, Week 52, ALL): 2.55
Wk 52 Δ to placebo, change from baseline in UHDRS TMS ([1]; 67.5 mg bid, Week 52, Stage 1 BL TFC 11-13): −0.84
Δ to placebo, change from baseline in UHDRS TMS ([1]; 90 mg bid, Week 26, ALL): 0.67
UHDRS TMS score at week 26 compared to baseline ([1]; 90 mg bid, Week 26, BL TFC 11-13, read from FIG. 8b): about −8
Δ to placebo, change from baseline in UHDRS TMS ([1]; 90 mg bid, Week 26, Stage 1 BL TFC 11-13): −6.15
Δ to placebo, change from baseline in UHDRS TMS ([1]; 90 mg bid, Week 52, ALL): 1.78
Wk 52 Δ to placebo, change from baseline in UHDRS TMS ([1]; 90 mg bid, Week 52, Stage 1 BL TFC 11-13): −7.1
Total Motor Score (TMS) change from baseline, treatment effect ([1]; 90 mg bid, compared with other doses): largest treatment effect
TMS change from baseline vs historical placebo ([1]; 90 mg bid, historical placebo in HART and MermaiHD): significant
Total Motor Score (TMS) change from baseline, difference vs historical placebo ([1]; 90 mg bid, week 26, historical placebo in HART and MermaiHD): ~6.5 TMS point
Δ to placebo, change from baseline in UHDRS TMS ([1]; 112.5 mg bid, Week 26, ALL): 2.1
Δ to placebo, change from baseline in UHDRS TMS ([1]; 112.5 mg bid, Week 26, Stage 1 BL TFC 11-13): −4.79
Δ to placebo, change from baseline in UHDRS TMS ([1]; 112.5 mg bid, Week 52, ALL): 2.71
Wk 52 Δ to placebo, change from baseline in UHDRS TMS ([1]; 112.5 mg bid, Week 52, Stage 1 BL TFC 11-13): −0.92
Δ to placebo, change from baseline in UHDRS TMS Gait and Balances ([2]; 45 mg bid, Stage 1 BL TFC 11-13): −0.94
Δ to placebo, change from baseline in UHDRS TMS Gait and Balances ([2]; 45 mg bid, all pridopidine treated patients): −0.09
Δ to placebo, change from baseline in UHDRS TMS Gait and Balance ([2]; 45 mg bid, week 26): −0.48
Δ to placebo, change from baseline in UHDRS TMS Gait and Balance ([2]; 45 mg bid, week 52): −0.41
Δ to placebo, change from baseline in UHDRS TMS Gait and Balances ([2]; 67.5 mg bid, Stage 1 BL TFC 11-13): −0.53
Δ to placebo, change from baseline in UHDRS TMS Gait and Balances ([2]; 67.5 mg bid, all pridopidine treated patients): −0.05
Δ to placebo, change from baseline in UHDRS TMS Gait and Balance ([2]; 67.5 mg bid, week 26): −0.37
Δ to placebo, change from baseline in UHDRS TMS Gait and Balance ([2]; 67.5 mg bid, week 52): −0.43
Δ to placebo, change from baseline in UHDRS TMS Gait and Balances ([2]; 90 mg bid, Stage 1 BL TFC 11-13): −0.49
Δ to placebo, change from baseline in UHDRS TMS Gait and Balances ([2]; 90 mg bid, all pridopidine treated patients): −0.01
Δ to placebo, change from baseline in UHDRS TMS Gait and Balance ([2]; 90 mg bid, week 26): −0.62
Δ to placebo, change from baseline in UHDRS TMS Gait and Balance ([2]; 90 mg bid, week 52): −0.28
Δ to placebo, change from baseline in UHDRS TMS Gait and Balances ([2]; 112.5 mg bid, Stage 1 BL TFC 11-13): −0.4
Δ to placebo, change from baseline in UHDRS TMS Gait and Balances ([2]; 112.5 mg bid, all pridopidine treated patients): 0.04
Δ to placebo, change from baseline in UHDRS TMS Gait and Balance ([2]; 112.5 mg bid, week 26): −0.49
Δ to placebo, change from baseline in UHDRS TMS Gait and Balance ([2]; 112.5 mg bid, week 52): −0.09
Wk 52 Δ to placebo, change from baseline in Q-Motor: Pro-Sup-Frequency-MN-Hand ([3]; 45 mg bid, FAS): 0.0599 Hz
Wk 52 Δ to placebo, change from baseline in Q-Motor: Pro-Sup-Frequency-MN-Hand ([3]; 45 mg bid, HD1 and HD2 patients): 0.1195 Hz
Wk 52 Δ to placebo, change from baseline in Q-Motor: Pro-Sup-Frequency-MN-Hand ([3]; 67.5 mg bid, FAS): −0.0124 Hz
Wk 52 Δ to placebo, change from baseline in Q-Motor: Pro-Sup-Frequency-MN-Hand ([3]; 67.5 mg bid, HD1 and HD2 patients): 0.0548 Hz
Wk 52 Δ to placebo, change from baseline in Q-Motor: Pro-Sup-Frequency-MN-Hand ([3]; 90 mg bid, FAS): −0.0087 Hz
Wk 52 Δ to placebo, change from baseline in Q-Motor: Pro-Sup-Frequency-MN-Hand ([3]; 90 mg bid, HD1 and HD2 patients): 0.0575 Hz
Wk 52 Δ to placebo, change from baseline in Q-Motor: Pro-Sup-Frequency-MN-Hand ([3]; 112.5 mg bid, FAS): 0.0127 Hz
Wk 52 Δ to placebo, change from baseline in Q-Motor: Pro-Sup-Frequency-MN-Hand ([3]; 112.5 mg bid, HD1 and HD2 patients): 0.08 Hz
Responders, UHDRS TMS dystonia (improved or no change) ([4]; BL dystonia score ≥4, completed 52 weeks, FIG. 16a, placebo 60.0%): 77.8%
Responders, UHDRS TMS dystonia (improved, change≥1) ([4]; BL dystonia score ≥4, completed 52 weeks, FIG. 16b, placebo […]): 66.7%
Responders, UHDRS-Limb Dystonia item (improved, change≥1) ([4]; BL dystonia score ≥4, completed 52 weeks, placebo […]): 77.2%
Responders, chorea+dystonia items ([4]; placebo 66.7%): 77.8%
dystonia in afflicted patients [5]: effective to reduce dystonia
secretion of brain-derived neurotrophic factor (BDNF) (neuroblastoma cell line): enhances secretion
